Assay results taken from the NIST ThermoML archive (doi:10.1021/je0503305).
Values joined by “and” are separate entries in the source; they are usually repeats but may differ in a detail not shown here. Identical values can stand only once.

Tests used:
[1] = Molar enthalpy of transition or fusion; conditions: Crystal; DSC
[2] = Crystal; for vapor or sublimation pressure: Calculated from knudsen effusion weight loss; for Normal melting temperature: DTA

COC(=O)c1ccccc1C(=O)O [phthalic acid, monomethyl ester]
Conditions | Molar enthalpy of transition or fusion [kcal/mol] | Normal melting temperature [°C]
[1] | 5.17 | –
[2] | – | 84.4

[2]
Conditions | vapor or sublimation pressure
335.28 K | 0.000112 kPa and 0.000118 kPa and 0.000115 kPa
337.26 K | 0.000154 kPa and 0.000148 kPa and 0.000149 kPa
339.2 K | 0.000184 kPa and 0.000187 kPa and 0.00019 kPa
341.24 K | 0.000239 kPa and 0.000243 kPa
343.11 K | 0.000298 kPa and 0.000306 kPa and 0.000301 kPa
345.27 K | 0.000388 kPa and 0.000386 kPa
347.24 K | 0.000471 kPa and 0.00048 kPa and 0.000468 kPa
349.12 K | 0.000579 kPa and 0.000575 kPa and 0.000593 kPa
351.06 K | 0.000743 kPa and 0.000733 kPa and 0.000751 kPa
353.23 K | 0.000981 kPa and 0.000964 kPa and 0.000948 kPa
355.28 K | 0.001233 kPa and 0.001242 kPa

COC(=O)c1cccc(C(=O)O)c1 [1,3-benzenedicarboxylic acid, monomethyl ester]
Conditions | Molar enthalpy of transition or fusion [kcal/mol] | Normal melting temperature [°C]
[1] | 8.72 | –
[2] | – | 193.53

[2]
Conditions | vapor or sublimation pressure
359.26 K | 0.000134 kPa and 0.000136 kPa
361.24 K | 0.000172 kPa and 0.000169 kPa
363.28 K | 0.000211 kPa and 0.00021 kPa and 0.000202 kPa
365.26 K | 0.000256 kPa and 0.000252 kPa and 0.000264 kPa
367.13 K | 0.000313 kPa and 0.000311 kPa
369.28 K | 0.000397 kPa and 0.000399 kPa and 0.000382 kPa
371.24 K | 0.000499 kPa and 0.000487 kPa and 0.000474 kPa
373.12 K | 0.000588 kPa and 0.000586 kPa and 0.000569 kPa
375.27 K | 0.000773 kPa and 0.000759 kPa and 0.000741 kPa
377.24 K | 0.000953 kPa and 0.000928 kPa and 0.000917 kPa
379.12 K | 0.001122 kPa and 0.001111 kPa

COC(=O)c1ccc(C(=O)O)cc1 [1,4-benzenedicarboxylic acid, monomethyl ester]
Conditions | Molar enthalpy of transition or fusion [kcal/mol] | Normal melting temperature [°C]
[1] | 9.01 | –
[2] | – | 219.39

[2]
Conditions | vapor or sublimation pressure
363.16 K | 0.000139 kPa and 0.00014 kPa
365.15 K | 0.000169 kPa and 0.000171 kPa and 0.000167 kPa
367.19 K | 0.000212 kPa and 0.000209 kPa
370.18 K | 0.000289 kPa and 0.000294 kPa and 0.000286 kPa
372.17 K | 0.000361 kPa and 0.000363 kPa and 0.000354 kPa
374.2 K | 0.000452 kPa and 0.000449 kPa and 0.000439 kPa
377.37 K | 0.00063 kPa and 0.000621 kPa and 0.00062 kPa
379.26 K | 0.000768 kPa and 0.000743 kPa and 0.000739 kPa
381.51 K | 0.00094 kPa and 0.000931 kPa and 0.000926 kPa
